Test system: DLD-1 cells
Test: in vitro test with cancerous DLD1 colon cells treated continuously
Assay type: cell-based
Conditions: continuous treatment, about 125 μg·ml of Formula (2)
Method: FIG. 1 illustrates the survival percentage colon DLD-1 carcinoma cells […] after continuous treatment with Formula (2).
FIG. 1 illustrates the results of an in vitro test with cancerous DLD1 colon cells treated continuously with Formula (2). The survival percentage for DLD-1 cells decreases from 100 percent without treatment to less than 1 percent in the presence of continuous treatment of about 125 μg·ml of Formula (2).

SMILES: Cc1cccc(NC(C)c2ccccc2C)c1 (stereo not shown) [Formula (2), 3-methyl-N-(1-o-tolylethyl)benxenamine]
- survival percentage for DLD-1 cells: less than 1%

Source: US8329756B2, “Drug for treatment of colon cancer” (Oncophor, LLC, priority 2009, dated 2012)
